This is an account of results in article PMC10586084 (Journal of Enzyme Inhibition and Medicinal Chemistry, 2023).

Format in all cases: biochemical
In one test the target is hCA I (Homo sapiens, UniProt P00915). The test can be described thus: stopped-flow CO2 hydrase assay, hCA I. To be noted: stopped flow technique, mean from three assays.
Another test addresses hCA II (Homo sapiens, UniProt P00918). In words: stopped-flow CO2 hydrase assay, hCA II. Particulars: stopped flow technique, mean from three assays.
The target in a further test is hCA IV (Homo sapiens, UniProt P22748). The test can be described thus: stopped-flow CO2 hydrase assay, hCA IV. To be noted: stopped flow technique, mean from three assays.
The target in another test is hCA IX (Homo sapiens, UniProt Q16790). In words: biochemical. Particulars: for Ki: KI hCA IX, stopped flow technique, mean from three assays; for Selectivity index I/IX: ratio KI hCA I / KI hCA IX; for Selectivity index II/IX: ratio KI hCA II / KI hCA IX; for Selectivity index IV/IX: ratio KI hCA IV / KI hCA IX.
A further test concerns the target hCA XII (Homo sapiens, UniProt O43570). In words: stopped-flow CO2 hydrase assay, hCA XII. Particulars: for Ki: KI hCA XII, stopped flow technique, mean from three assays; for Selectivity index I/XII: ratio KI hCA I / KI hCA XII; for Selectivity index II/XII: ratio KI hCA II / KI hCA XII; for Selectivity index IV/XII: ratio KI hCA IV / KI hCA XII.

Chain of hCA XII (O43570 25-354): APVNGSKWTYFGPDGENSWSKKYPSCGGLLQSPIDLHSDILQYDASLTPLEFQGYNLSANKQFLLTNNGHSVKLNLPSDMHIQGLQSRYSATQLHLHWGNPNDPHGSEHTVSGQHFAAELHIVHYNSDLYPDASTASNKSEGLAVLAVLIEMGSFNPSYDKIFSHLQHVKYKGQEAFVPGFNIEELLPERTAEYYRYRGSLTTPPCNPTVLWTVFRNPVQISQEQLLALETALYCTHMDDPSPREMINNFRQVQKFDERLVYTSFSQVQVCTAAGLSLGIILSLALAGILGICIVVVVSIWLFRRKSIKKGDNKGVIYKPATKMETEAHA
Chain of hCA I (P00915 whole entry): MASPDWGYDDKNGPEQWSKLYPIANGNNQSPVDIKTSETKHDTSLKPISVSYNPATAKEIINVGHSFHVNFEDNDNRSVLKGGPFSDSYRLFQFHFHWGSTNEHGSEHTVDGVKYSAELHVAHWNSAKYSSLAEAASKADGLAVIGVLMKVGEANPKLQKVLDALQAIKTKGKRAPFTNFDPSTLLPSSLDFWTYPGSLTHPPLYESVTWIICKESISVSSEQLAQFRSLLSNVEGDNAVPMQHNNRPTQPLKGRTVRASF
Chain of hCA IV (P22748 19-284 limits assumed): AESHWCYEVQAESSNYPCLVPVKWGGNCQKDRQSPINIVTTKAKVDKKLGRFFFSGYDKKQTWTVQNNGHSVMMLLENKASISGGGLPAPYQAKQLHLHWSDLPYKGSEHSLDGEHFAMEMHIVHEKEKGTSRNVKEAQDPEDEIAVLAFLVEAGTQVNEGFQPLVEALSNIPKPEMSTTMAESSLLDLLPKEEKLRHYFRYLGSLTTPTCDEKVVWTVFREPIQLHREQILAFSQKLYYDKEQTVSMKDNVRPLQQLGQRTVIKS

For `NS(=O)(=O)c1ccc(Nc2nc3nccc(-c4ccccc4)n3n2)cc1` [Compound 1a, 4-((7-Phenyl-[1,2,4]triazolo[1,5-a]pyrimidin-2-yl)amino)benzenesulfonamide], at hCA I, the affinity, expressed as Ki, was 841 nM. Moreover, the affinity on hCA II, expressed as Ki, was 75.3 nM. For the same molecule, the Ki – broadly, a dissociation constant, usually derived from enzyme kinetics or from competition with a known ligand – on hCA IV was 1330 nM. Also, on hCA IX, the affinity, expressed as Ki, was 33.2 nM; the “Selectivity index I/IX” value is 25.3; the “Selectivity index II/IX” value was 2.3; the “Selectivity index IV/IX” value amounted to 39.9. Besides, on hCA XII, the Ki amounted to 71.7 nM, the “Selectivity index I/XII” value is 11.7, the “Selectivity index II/XII” value turned out to be 1.0 and the “Selectivity index IV/XII” value was found to be 18.5.
For the molecule `COc1cc(OC)cc(-c2ccnc3nc(Nc4ccc(S(N)(=O)=O)cc4)nn23)c1` [Compound 1aa, 4-((7-(3,5-Dimethoxyphenyl)-[1,2,4]triazolo[1,5-a]pyrimidin-2-yl)amino)benzenesulfonamide], the inhibition constant (Ki) on hCA I came out at 4530 nM. The affinity on hCA II corresponds to a Ki of 110 nM. The molecule further registered a Ki at hCA IV of 1010 nM. In addition, at hCA IX, the inhibition constant Ki was determined as 46.8 nM, the “Selectivity index I/IX” value is recorded as 96.7, the “Selectivity index II/IX” value is 2.4 and the “Selectivity index IV/IX” value is 21.5. Also, at hCA XII, the Ki stood at 27.1 nM, the “Selectivity index I/XII” value is on record as 167, the “Selectivity index II/XII” value worked out at 4.1 and the “Selectivity index IV/XII” value worked out at 37.2.
Turning to `COc1ccc(-c2ccnc3nc(Nc4ccc(S(N)(=O)=O)cc4)nn23)cc1OC` [Compound 1ab, 4-((7-(3,4-Dimethoxyphenyl)-[1,2,4]triazolo[1,5-a]pyrimidin-2-yl)amino)benzenesulfonamide], the affinity on hCA I corresponds to a Ki of 993 nM. The same molecule gave a Ki on hCA II of 95.2 nM. Besides, the affinity at hCA IV corresponds to a Ki of 1520 nM. Further, at hCA IX, affinity was put at a Ki of 35.8 nM, the “Selectivity index I/IX” value was 27.7, the “Selectivity index II/IX” value was 2.6 and the “Selectivity index IV/IX” value worked out at 42.4. At hCA XII, the affinity corresponds to a Ki of 9 nM, the “Selectivity index I/XII” value was 110, the “Selectivity index II/XII” value is reported as 10.6 and the “Selectivity index IV/XII” value is on record as 169.
For `NS(=O)(=O)c1ccc(Nc2nc3nccc(-c4cccs4)n3n2)cc1` [Compound 1b, 4-((7-(Thiophen-2-yl)-[1,2,4]triazolo[1,5-a]pyrimidin-2-yl)amino)benzenesulfonamide], the Ki at hCA I amounted to 501 nM. On hCA II, this molecule returned a Ki of 98.2 nM. The molecule further yielded an inhibition constant (Ki) at hCA IV of 2660 nM. On hCA IX, the inhibitory constant (Ki) turned out to be 49.5 nM, the “Selectivity index I/IX” value was determined as 10.1, the “Selectivity index II/IX” value is 2.0 and the “Selectivity index IV/IX” value was found to be 53.7. Further, on hCA XII, the affinity corresponds to a Ki of 66.9 nM, the “Selectivity index I/XII” value is given as 7.5, the “Selectivity index II/XII” value was 1.5 and the “Selectivity index IV/XII” value amounted to 39.7.
Consider `NS(=O)(=O)c1ccc(Nc2nc3nccc(-c4ccncc4)n3n2)cc1` [Compound 1c, 4-((7-(Pyridin-4-yl)-[1,2,4]triazolo[1,5-a]pyrimidin-2-yl)amino)benzenesulfonamide], for which the Ki at hCA I amounted to 725 nM. At hCA II, this molecule returned a Ki of 43.7 nM. The molecule also had a Ki at hCA IV of 726 nM. On hCA IX, the affinity, expressed as Ki, was 41.6 nM; the “Selectivity index I/IX” value is listed as 17.4; the “Selectivity index II/IX” value amounted to 1.0; the “Selectivity index IV/IX” value came to 17.5. Moreover, at hCA XII, the Ki amounted to 15.3 nM, the “Selectivity index I/XII” value is recorded as 47.4, the “Selectivity index II/XII” value is 2.9 and the “Selectivity index IV/XII” value was determined as 47.5.
In the case of `NS(=O)(=O)c1ccc(Nc2nc3nccc(-c4cccnc4)n3n2)cc1` [Compound 1d, 4-((7-(Pyridin-3-yl)-[1,2,4]triazolo[1,5-a]pyrimidin-2-yl)amino)benzenesulfonamide], the Ki at hCA I was 602 nM; at hCA II, 24.8 nM; on hCA IV it was 333 nM; on hCA IX, 5.1 nM; on hCA XII, 8.8 nM.
